# Test results as given in PubChem BioAssay (NCI).
# Values joined by “and” are separate entries in the source; they are usually repeats but may differ in a detail not shown here. Identical values can stand only once.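 Method: 48-hour compound exposure of cells in 96-well plates, five concentrations, linear interpolation of endpoints. Here, GI50 denotes the concentration required for 50% inhibition of growth. TGI is the concentration that stops growth completely.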
# Experiments:
# Experiment in all cases: DTP human tumour cell line panel, 48 h
# SW-620 colon = tested on: SW-620 colon
# UACC-62 melanoma = tested on: UACC-62 melanoma
# NCI-H522 lung = tested on: NCI-H522 lung
# HCT-116 colon = tested on: HCT-116 colon
# UO-31 renal = tested on: UO-31 renal
# CCRF-CEM leukemia = tested on: CCRF-CEM leukemia
# K-562 leukemia = tested on: K-562 leukemia
# SNB-19 CNS = tested on: SNB-19 CNS
# ACHN renal = tested on: ACHN renal
# OVCAR-5 ovarian = tested on: OVCAR-5 ovarian
# CAKI-1 renal = tested on: CAKI-1 renal
# RPMI-8226 leukemia = tested on: RPMI-8226 leukemia
# HT29 colon = tested on: HT29 colon
# BT-549 breast = tested on: BT-549 breast
# SK-OV-3 ovarian = tested on: SK-OV-3 ovarian
# MDA-N = tested on: MDA-N
# SK-MEL-2 melanoma = tested on: SK-MEL-2 melanoma
# OVCAR-3 ovarian = tested on: OVCAR-3 ovarian
# SNB-75 CNS = tested on: SNB-75 CNS
# SN12C renal = tested on: SN12C renal
# SR leukemia = tested on: SR leukemia
# NCI-H226 lung = tested on: NCI-H226 lung
# OVCAR-4 ovarian = tested on: OVCAR-4 ovarian
# MOLT-4 leukemia = tested on: MOLT-4 leukemia
# SK-MEL-5 melanoma = tested on: SK-MEL-5 melanoma
# A498 renal = tested on: A498 renal
# HCC-2998 colon = tested on: HCC-2998 colon
# U251 CNS = tested on: U251 CNS
# NCI-H23 lung = tested on: NCI-H23 lung
# 786-0 renal = tested on: 786-0 renal
# EKVX NSCLC = tested on: EKVX NSCLC
# T-47D breast = tested on: T-47D breast
# HCT-15 colon = tested on: HCT-15 colon
# RXF 393 renal = tested on: RXF 393 renal
# A549 NSCLC = tested on: A549 NSCLC
# LOX IMVI melanoma = tested on: LOX IMVI melanoma
# KM12 colon = tested on: KM12 colon
# HS 578T breast = tested on: HS 578T breast
# MCF7 breast = tested on: MCF7 breast
# MDA-MB-435 = tested on: MDA-MB-435
# COLO 205 colon = tested on: COLO 205 colon
# MDA-MB-231 breast = tested on: MDA-MB-231 breast
# DU-145 prostate = tested on: DU-145 prostate
# HL-60(TB) leukemia = tested on: HL-60(TB) leukemia
# HOP-62 NSCLC = tested on: HOP-62 NSCLC
# SK-MEL-28 melanoma = tested on: SK-MEL-28 melanoma
# M14 melanoma = tested on: M14 melanoma
# IGROV1 ovarian = tested on: IGROV1 ovarian
# TK-10 renal = tested on: TK-10 renal
# NCI-H460 lung = tested on: NCI-H460 lung
# PC-3 prostate = tested on: PC-3 prostate
# NCI/ADR-RES ovarian = tested on: NCI/ADR-RES ovarian
# SF-539 CNS = tested on: SF-539 CNS
# MALME-3M melanoma = tested on: MALME-3M melanoma
# SF-295 CNS = tested on: SF-295 CNS
# SF-268 CNS = tested on: SF-268 CNS
# OVCAR-8 ovarian = tested on: OVCAR-8 ovarian
# HOP-92 NSCLC = tested on: HOP-92 NSCLC
# UACC-257 melanoma = tested on: UACC-257 melanoma
smiles,measurement,setting,value
CCC(C)C1NC(=O)C(NC(=O)C(CC(C)C)N(C)C(=O)[C@@H]2CC(O)CN2C(=O)[C@H](C)O)C(C)OC(=O)[C@H](Cc2ccc(OC)cc2)N(C)C(=O)[C@@H]2CCCN2C(=O)[C@H](CC(C)C)NC(=O)C(C)C(=O)[C@H](C(C)C)OC(=O)CC1O (stereo partly drawn),GI50,SW-620 colon,58.1 nM
same,TGI,SW-620 colon,2300 nM and 919 nM
same,GI50,UACC-62 melanoma,< 10 nM
same,TGI,UACC-62 melanoma,361 nM and 49.5 nM
same,GI50,NCI-H522 lung,20.8 nM
same,TGI,NCI-H522 lung,902 nM and 234 nM
same,GI50,HCT-116 colon,< 10 nM
same,TGI,HCT-116 colon,1010 nM and 1600 nM
same,GI50,UO-31 renal,581 nM
same,TGI,UO-31 renal,5650 nM
same,GI50,CCRF-CEM leukemia,27.6 nM
same,TGI,CCRF-CEM leukemia,280 nM
same,GI50,K-562 leukemia,25 nM
same,TGI,K-562 leukemia,352 nM
same,GI50,SNB-19 CNS,< 10 nM
same,TGI,SNB-19 CNS,3390 nM and 346 nM
same,GI50,ACHN renal,131 nM
same,TGI,ACHN renal,8740 nM and 5220 nM
same,GI50,OVCAR-5 ovarian,417 nM
same,TGI,OVCAR-5 ovarian,2530 nM and 2140 nM
same,GI50,CAKI-1 renal,229 nM
same,TGI,CAKI-1 renal,2990 nM
same,GI50,RPMI-8226 leukemia,69.5 nM
same,TGI,RPMI-8226 leukemia,1770 nM
same,GI50,HT29 colon,16.9 nM
same,TGI,HT29 colon,2230 nM and 1090 nM
same,GI50,BT-549 breast,25.9 nM
same,TGI,BT-549 breast,855 nM and 233 nM
same,GI50,SK-OV-3 ovarian,20.9 nM
same,TGI,SK-OV-3 ovarian,1110 nM and 404 nM
same,GI50,MDA-N,29.2 nM
same,TGI,MDA-N,1070 nM and 1110 nM
same,GI50,SK-MEL-2 melanoma,< 10 nM
same,TGI,SK-MEL-2 melanoma,342 nM and 206 nM
same,GI50,OVCAR-3 ovarian,79.3 nM
same,TGI,OVCAR-3 ovarian,1260 nM and 982 nM
same,GI50,SNB-75 CNS,33.8 nM
same,TGI,SNB-75 CNS,1250 nM and 614 nM
same,GI50,SN12C renal,57.2 nM
same,TGI,SN12C renal,806 nM and 3200 nM
same,GI50,SR leukemia,18.9 nM
same,TGI,SR leukemia,> 100000 nM
same,GI50,NCI-H226 lung,79.9 nM
same,TGI,NCI-H226 lung,521 nM and 572 nM
same,GI50,OVCAR-4 ovarian,24.6 nM
same,TGI,OVCAR-4 ovarian,1140 nM and 1170 nM
same,GI50,MOLT-4 leukemia,14.2 nM
same,GI50,SK-MEL-5 melanoma,< 10 nM
same,TGI,SK-MEL-5 melanoma,445 nM and 57.4 nM
same,GI50,A498 renal,325 nM
same,TGI,A498 renal,4840 nM and 3010 nM
same,GI50,HCC-2998 colon,< 10 nM
same,TGI,HCC-2998 colon,637 nM and 399 nM
same,GI50,U251 CNS,< 10 nM
same,TGI,U251 CNS,1630 nM and 677 nM
same,TGI,NCI-H23 lung,172 nM
same,GI50,786-0 renal,76.2 nM
same,TGI,786-0 renal,1700 nM and 2280 nM
same,TGI,EKVX NSCLC,3320 nM
same,GI50,T-47D breast,13.7 nM
same,TGI,T-47D breast,710 nM and 2070 nM
same,GI50,HCT-15 colon,315 nM
same,TGI,HCT-15 colon,12700 nM
same,GI50,RXF 393 renal,< 10 nM
same,TGI,RXF 393 renal,481 nM and 112 nM
same,GI50,A549 NSCLC,27.7 nM
same,TGI,A549 NSCLC,1910 nM
same,GI50,LOX IMVI melanoma,21.8 nM
same,TGI,LOX IMVI melanoma,1060 nM and 193 nM
same,GI50,KM12 colon,< 10 nM
same,TGI,KM12 colon,735 nM and 173 nM
same,GI50,HS 578T breast,< 10 nM
same,TGI,HS 578T breast,283 nM and 31.7 nM
same,GI50,MCF7 breast,< 10 nM
same,GI50,MDA-MB-435,36.5 nM
same,TGI,MDA-MB-435,705 nM and 410 nM
same,GI50,COLO 205 colon,16.3 nM
same,TGI,COLO 205 colon,273 nM and 1690 nM
same,GI50,MDA-MB-231 breast,92.6 nM
same,TGI,MDA-MB-231 breast,991 nM and 3950 nM
same,GI50,DU-145 prostate,88.4 nM
same,TGI,DU-145 prostate,3350 nM and 1850 nM
same,GI50,HL-60(TB) leukemia,154 nM
same,TGI,HL-60(TB) leukemia,2030 nM
same,GI50,HOP-62 NSCLC,28 nM
same,TGI,HOP-62 NSCLC,1400 nM and 394 nM
same,GI50,SK-MEL-28 melanoma,< 10 nM
same,TGI,SK-MEL-28 melanoma,467 nM and 256 nM
same,GI50,M14 melanoma,11.4 nM
same,TGI,M14 melanoma,762 nM and 202 nM
same,GI50,IGROV1 ovarian,19.1 nM
same,TGI,IGROV1 ovarian,1400 nM and 312 nM
same,GI50,TK-10 renal,224 nM
same,TGI,TK-10 renal,4520 nM and 2050 nM
same,GI50,NCI-H460 lung,19 nM
same,TGI,NCI-H460 lung,1160 nM and 1400 nM
same,GI50,PC-3 prostate,60.3 nM
same,TGI,PC-3 prostate,1830 nM and 416 nM
same,TGI,NCI/ADR-RES ovarian,> 100000 nM
same,GI50,SF-539 CNS,10.4 nM
same,TGI,SF-539 CNS,211 nM and 335 nM
same,GI50,MALME-3M melanoma,13 nM
same,TGI,MALME-3M melanoma,1070 nM and 185 nM
same,GI50,SF-295 CNS,26.8 nM
same,TGI,SF-295 CNS,2050 nM and 388 nM
same,GI50,SF-268 CNS,45.1 nM
same,TGI,SF-268 CNS,1700 nM and 1040 nM
same,GI50,OVCAR-8 ovarian,107 nM
same,TGI,OVCAR-8 ovarian,4380 nM and 2620 nM
same,GI50,HOP-92 NSCLC,12.7 nM
same,TGI,HOP-92 NSCLC,1990 nM and 285 nM
same,GI50,UACC-257 melanoma,76.8 nM
same,TGI,UACC-257 melanoma,1940 nM and 1850 nM
